Assay [1] deals with IKZF2 (Homo sapiens (Human), UniProt Q96SW2+Q9UKS7). Briefly: In vitro IKZF2 HiBit Assay (HEK293T Flp-in-HiBiT cells). The format is cell-based. To be noted: HEK293T Flp-in-HiBiT cells, 6 hrs incubation; for DC50: read-out: IKZF2 HiBit DC50; for Dmax: HEK-293T, read-out: IKZF2 HiBit Dmax (%). A digest of the protocol:
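HEK293T Flp-in cells carrying an endogenous N-terminal HiBiT tag on IKZF2 were exposed to compound for 6 h at 0.1% DMSO. The dilution series was 11 doses at 3-fold, diluted from 1 mM. Nano-Glo HiBiT lytic luminescence, normalized to DMSO, gave DC50 for 50% degradation and Dmax across the concentration range, both reported in letter bins.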

Assay [2] has as its target IKZF1 (Homo sapiens (Human), UniProt Q13422+Q96SW2). The assay is described as follows: In vitro IKZF1 HiBit Assay (HEK293T Flp-in-HiBiT-IKZF1 stable cell line). The class given is cell-based. Particulars: HEK293T Flp-in-HiBiT-IKZF1 stable cell line, 6 hrs incubation; for DC50: read-out: IKZF1 HiBit DC50; for Dmax: HEK-293T, read-out: IKZF1 HiBit Dmax (%). A digest of the protocol:
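HEK293T Flp-in cells carrying N-terminal HiBiT-tagged IKZF1 were exposed to compound (0.1% DMSO) for 6 h at 3000 cells/well. HiBiT luminescence was read after lytic LgBiT detection. DC50 and Dmax were taken from DMSO-normalized dose-response curves.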

Assay [3] deals with CRBN/DDB1 (Homo sapiens (Human), UniProt Q96SW2). The assay is described as follows: IC50 measurements for binding to CRBN/DDB1 (HTRF). Particulars: His tagged CRBN+DDB, Cy5-labeled Thalidomide probe, one hour. A digest of the protocol:
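HTRF competition binding with 2 nM His-tagged CRBN-DDB1 complex, 60 nM Cy5-thalidomide probe and 0.4 nM anti-His Tb cryptate in 50 mM HEPES pH 7.5, 1 mM TCEP, 0.01% Brij-35, 50 mM NaCl, 0.1% BSA. Read after 1 h at room temperature; IC50 from four-parameter dose-response fit.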

pIC50: −log10 of the molar value.

Sequence of IKZF1 (Q13422 whole entry): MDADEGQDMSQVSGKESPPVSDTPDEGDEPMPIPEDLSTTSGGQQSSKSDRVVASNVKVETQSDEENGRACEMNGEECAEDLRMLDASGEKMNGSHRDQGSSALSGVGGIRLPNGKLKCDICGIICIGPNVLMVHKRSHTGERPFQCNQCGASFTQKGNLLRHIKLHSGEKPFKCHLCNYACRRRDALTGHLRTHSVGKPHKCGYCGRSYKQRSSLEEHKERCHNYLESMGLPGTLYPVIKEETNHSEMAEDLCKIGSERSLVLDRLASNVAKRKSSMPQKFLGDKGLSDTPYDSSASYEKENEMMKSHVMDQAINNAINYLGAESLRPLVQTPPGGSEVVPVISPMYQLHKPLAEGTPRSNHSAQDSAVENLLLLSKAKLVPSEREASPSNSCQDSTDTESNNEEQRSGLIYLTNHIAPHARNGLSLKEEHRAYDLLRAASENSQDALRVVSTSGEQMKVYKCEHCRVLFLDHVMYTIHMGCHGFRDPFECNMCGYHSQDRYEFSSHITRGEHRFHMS
Sequence of IKZF1 (Q96SW2 whole entry): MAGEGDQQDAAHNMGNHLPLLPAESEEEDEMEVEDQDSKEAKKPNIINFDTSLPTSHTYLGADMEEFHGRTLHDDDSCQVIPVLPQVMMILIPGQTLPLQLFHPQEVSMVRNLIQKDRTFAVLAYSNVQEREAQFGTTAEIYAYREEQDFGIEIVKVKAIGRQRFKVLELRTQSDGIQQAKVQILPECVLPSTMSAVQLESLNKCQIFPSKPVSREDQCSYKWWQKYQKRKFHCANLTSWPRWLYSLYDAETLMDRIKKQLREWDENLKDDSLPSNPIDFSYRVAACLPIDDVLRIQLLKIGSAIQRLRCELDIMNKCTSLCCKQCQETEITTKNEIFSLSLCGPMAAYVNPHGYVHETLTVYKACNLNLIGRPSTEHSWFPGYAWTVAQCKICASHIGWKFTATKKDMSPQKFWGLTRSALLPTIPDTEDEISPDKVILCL
Sequence of IKZF1 (Q16531 2-1140 partner): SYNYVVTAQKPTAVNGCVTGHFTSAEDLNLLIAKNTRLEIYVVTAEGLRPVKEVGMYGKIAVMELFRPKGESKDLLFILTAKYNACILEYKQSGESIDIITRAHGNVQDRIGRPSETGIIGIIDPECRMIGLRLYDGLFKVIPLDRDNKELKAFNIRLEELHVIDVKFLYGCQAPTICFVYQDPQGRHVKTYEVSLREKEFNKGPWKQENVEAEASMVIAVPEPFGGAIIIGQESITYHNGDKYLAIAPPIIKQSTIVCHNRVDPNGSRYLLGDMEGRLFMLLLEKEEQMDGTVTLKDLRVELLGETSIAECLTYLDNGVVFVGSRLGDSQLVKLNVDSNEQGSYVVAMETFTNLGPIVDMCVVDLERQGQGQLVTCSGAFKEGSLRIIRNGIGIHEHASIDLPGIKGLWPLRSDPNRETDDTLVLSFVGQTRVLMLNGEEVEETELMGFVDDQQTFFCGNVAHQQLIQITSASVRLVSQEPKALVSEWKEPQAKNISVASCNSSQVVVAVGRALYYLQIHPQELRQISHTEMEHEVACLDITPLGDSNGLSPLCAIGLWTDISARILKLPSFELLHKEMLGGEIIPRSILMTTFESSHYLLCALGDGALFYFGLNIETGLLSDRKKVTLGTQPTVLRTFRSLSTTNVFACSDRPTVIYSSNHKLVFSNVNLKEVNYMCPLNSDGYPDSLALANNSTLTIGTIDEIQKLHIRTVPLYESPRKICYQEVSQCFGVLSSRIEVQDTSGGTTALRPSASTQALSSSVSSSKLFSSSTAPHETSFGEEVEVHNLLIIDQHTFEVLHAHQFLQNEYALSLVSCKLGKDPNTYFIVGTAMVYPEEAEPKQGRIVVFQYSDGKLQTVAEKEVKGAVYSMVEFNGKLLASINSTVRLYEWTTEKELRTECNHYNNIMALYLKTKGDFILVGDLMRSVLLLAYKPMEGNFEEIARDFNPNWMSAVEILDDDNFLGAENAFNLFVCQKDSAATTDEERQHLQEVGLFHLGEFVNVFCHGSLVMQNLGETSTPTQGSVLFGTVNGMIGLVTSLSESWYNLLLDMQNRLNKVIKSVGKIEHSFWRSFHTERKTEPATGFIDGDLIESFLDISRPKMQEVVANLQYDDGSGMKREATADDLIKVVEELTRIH
Sequence of CRBN/DDB1 (Q96SW2 whole entry, species assumed): as the sequence (Q96SW2 whole entry) above
Sequence of CRBN/DDB1 (Q16531 whole entry partner, species assumed): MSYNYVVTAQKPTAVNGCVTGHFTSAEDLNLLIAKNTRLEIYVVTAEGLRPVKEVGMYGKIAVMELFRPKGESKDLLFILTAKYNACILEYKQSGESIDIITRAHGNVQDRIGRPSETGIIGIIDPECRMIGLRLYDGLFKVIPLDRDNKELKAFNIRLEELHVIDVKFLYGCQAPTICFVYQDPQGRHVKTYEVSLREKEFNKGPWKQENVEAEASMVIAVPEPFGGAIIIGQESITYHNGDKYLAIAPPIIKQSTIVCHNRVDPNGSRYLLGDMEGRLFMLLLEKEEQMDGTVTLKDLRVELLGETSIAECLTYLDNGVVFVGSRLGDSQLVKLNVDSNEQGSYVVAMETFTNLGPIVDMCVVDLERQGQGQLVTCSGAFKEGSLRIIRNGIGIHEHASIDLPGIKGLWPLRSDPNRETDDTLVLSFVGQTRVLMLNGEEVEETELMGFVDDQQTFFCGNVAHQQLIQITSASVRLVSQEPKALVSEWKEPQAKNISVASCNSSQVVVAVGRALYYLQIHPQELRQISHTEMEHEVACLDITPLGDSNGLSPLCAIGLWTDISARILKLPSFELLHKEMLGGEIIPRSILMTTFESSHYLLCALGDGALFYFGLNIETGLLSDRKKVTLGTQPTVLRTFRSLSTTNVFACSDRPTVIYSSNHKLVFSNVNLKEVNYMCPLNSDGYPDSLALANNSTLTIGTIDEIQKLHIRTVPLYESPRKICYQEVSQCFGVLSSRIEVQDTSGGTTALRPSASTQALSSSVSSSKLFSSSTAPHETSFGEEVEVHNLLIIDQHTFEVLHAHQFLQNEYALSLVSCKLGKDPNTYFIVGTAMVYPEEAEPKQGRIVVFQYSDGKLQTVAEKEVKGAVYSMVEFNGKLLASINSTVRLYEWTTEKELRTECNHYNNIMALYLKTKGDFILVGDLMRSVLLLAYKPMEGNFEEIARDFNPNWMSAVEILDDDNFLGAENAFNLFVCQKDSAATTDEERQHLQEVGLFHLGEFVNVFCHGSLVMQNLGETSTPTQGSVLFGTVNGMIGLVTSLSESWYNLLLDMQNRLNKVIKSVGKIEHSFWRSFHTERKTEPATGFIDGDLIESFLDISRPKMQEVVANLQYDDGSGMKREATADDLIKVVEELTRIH
Sequence of IKZF2 (Q9UKS7 whole entry): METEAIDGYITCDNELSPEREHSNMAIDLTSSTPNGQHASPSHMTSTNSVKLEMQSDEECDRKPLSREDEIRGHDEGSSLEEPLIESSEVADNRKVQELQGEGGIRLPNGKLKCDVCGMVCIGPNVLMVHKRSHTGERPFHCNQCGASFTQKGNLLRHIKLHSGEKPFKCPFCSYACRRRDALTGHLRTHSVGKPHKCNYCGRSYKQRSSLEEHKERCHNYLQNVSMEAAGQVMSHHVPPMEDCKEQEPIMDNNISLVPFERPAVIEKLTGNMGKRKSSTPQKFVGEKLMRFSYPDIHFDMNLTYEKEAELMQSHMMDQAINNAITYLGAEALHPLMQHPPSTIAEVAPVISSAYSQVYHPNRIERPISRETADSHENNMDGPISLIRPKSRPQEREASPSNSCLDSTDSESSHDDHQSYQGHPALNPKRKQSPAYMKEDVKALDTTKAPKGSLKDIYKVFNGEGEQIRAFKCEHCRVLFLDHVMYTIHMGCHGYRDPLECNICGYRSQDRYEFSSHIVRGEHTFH
Sequence of IKZF2 (Q96SW2 whole entry): as the sequence (Q96SW2 whole entry) above
Sequence of IKZF2 (Q16531 2-1140 partner): as the sequence (Q16531 2-1140 partner) above

As for `Cn1ccc2c(CN3CCCCC3)cc(-c3ccc4c(c3)CN(C3CCC(=O)NC3=O)C4=O)nc21` (stereo not shown) [Example 57, 3-(5-(1-methyl-4-(piperidin-1-ylmethyl)-1H-pyrrolo[2,3-b]pyridin-6-yl)-1-oxoisoindolin-2-yl) piperidine-2,6-dione], in assay [1], the DC50 was under 1 nM and the Dmax is over 80%. In addition, in assay [2], the DC50 is over 10000 nM and the Dmax was 20 to 40%. In assay [3], this molecule showed a pIC50 of 6.30 to 7.00.

Turning to `Cn1ccc2nc(-c3ccc4c(c3)CN(C3CCC(=O)NC3=O)C4=O)cc(CN3CCCC3)c21` (stereo not shown) [Example 77, 3-(5-(1-methyl-7-(pyrrolidin-1-ylmethyl)-1H-pyrrolo[3,2-b]pyridin-5-yl)-1-oxoisoindolin-2-yl) piperidine-2,6-dione], in assay [1], the DC50 is under 1 nM and the Dmax is over 80%. Besides, in assay [2], the DC50 is over 10000 nM and the Dmax was in the range of 20 to 40%. Moreover, the pIC50 in assay [3] was 5.30 to 6.00.

As to `Nc1n[nH]c2c(CN3CC(O)C3)cc(-c3ccc4c(c3)CN(C3CCC(=O)NC3=O)C4=O)nc12` (stereo not shown) [Example 213, 3-(5-(3-amino-7-((3-hydroxyazetidin-1-yl)methyl)-1H-pyrazolo[4,3-b]pyridin-5-yl)-1-oxoisoindolin-2-yl) piperidine-2,6-dione], in assay [1], the DC50 was 100 to 1000 nM and the Dmax lay within 40 to 60%. Further, in assay [2], the DC50 was 1 to 10 nM and the Dmax lay in the range of 20 to 40%. The molecule further gave a pIC50 in assay [3] of 6.30 to 7.00.

`O=C1CCC(N2Cc3cc(-c4cc(CN5CCC(F)C5)c5ccn(C6COC6)c5n4)ccc3C2=O)C(=O)N1` (stereo not shown) [Example 157, 3-(5-(4-((3-fluoropyrrolidin-1-yl)methyl)-1-(oxetan-3-yl)-1H-pyrrolo[2,3-b]pyridin-6-yl)-1-oxoisoindolin-2-yl) piperidine-2,6-dione]: in assay [1], the DC50 was 1 to 10 nM and the Dmax is over 80%. Besides, in assay [2], the DC50 is over 10000 nM and the Dmax was under 20%. For the same molecule, the pIC50 in assay [3] is 6.00 to 6.30.

With `O=C1CCC(N2Cc3cc(-c4cc(CN5CCC(F)C5)c5ccn(C6CC6)c5n4)ccc3C2=O)C(=O)N1` (stereo not shown) [Example 141, 3-(5-(1-cyclopropyl-4-((3-fluoropyrrolidin-1-yl)methyl)-1H-pyrrolo[2,3-b]pyridin-6-yl)-1-oxoisoindolin-2-yl) piperidine-2,6-dione], in assay [1], the DC50 lay within 1 to 10 nM and the Dmax is over 80%. In assay [2], the DC50 is over 10000 nM and the Dmax is under 20%. In addition, the pIC50 in assay [3] is 5.30 to 6.00.

Regarding `Cn1ccc2c(CN3CCCC3)nc(-c3ccc4c(c3)CN(C3CCC(=O)NC3=O)C4=O)nc21` (stereo not shown) [Example 184, 3-(5-(7-methyl-4-(pyrrolidin-1-ylmethyl)-7H-pyrrolo[2,3-d]pyrimidin-2-yl)-1-oxoisoindolin-2-yl) piperidine-2,6-dione], in assay [1], the DC50 is 1 to 10 nM and the Dmax lay in the range of 60 to 80%. Also, in assay [2], the DC50 lay in the range of 1000 to 10000 nM and the Dmax lay within 20 to 40%. The molecule further showed a pIC50 in assay [3] of 6.00 to 6.30.

`O=C1CCC(N2Cc3cc(-c4cc(CN5CCCC5)c5[nH]ccc5n4)ccc3C2=O)C(=O)N1` (stereo not shown) [Example 76, 3-(1-oxo-5-(7-(pyrrolidin-1-ylmethyl)-1H-pyrrolo[3,2-b]pyridin-5-yl)isoindolin-2-yl) piperidine-2,6-dione]: the DC50 in assay [1] is under 1 nM; in assay [2] it was over 10000 nM. The Dmax in assay [1] was over 80%; in assay [2], 20 to 40%. The molecule also gave a pIC50 in assay [3] of 5.30 to 6.00.

Regarding `O=C1CCC(N2Cc3cc(-c4cc(CN5CC(F)C5)c5ccn(C6CC6)c5n4)ccc3C2=O)C(=O)N1` (stereo not shown) [Example 143, 3-(5-(1-cyclopropyl-4-((3-fluoroazetidin-1-yl)methyl)-1H-pyrrolo[2,3-b]pyridin-6-yl)-1-oxoisoindolin-2-yl) piperidine-2,6-dione], the results for the DC50 in assay [1] and in assay [2] were 1 to 10 nM and over 10000 nM, respectively. Further, the Dmax in assay [1] is over 80%; in assay [2], under 20%. In addition, the pIC50 in assay [3] was 5.30 to 6.00.
